{"source": "patent US11130748B2", "about": "“Compounds” (MISSION THERAPEUTICS LIMITED, priority 2015, dated 2021)", "data": [{"molecular_target": "USP30 (Homo sapiens (Human), UniProt Q70CQ3)", "sequence (Q70CQ3 57-517)": "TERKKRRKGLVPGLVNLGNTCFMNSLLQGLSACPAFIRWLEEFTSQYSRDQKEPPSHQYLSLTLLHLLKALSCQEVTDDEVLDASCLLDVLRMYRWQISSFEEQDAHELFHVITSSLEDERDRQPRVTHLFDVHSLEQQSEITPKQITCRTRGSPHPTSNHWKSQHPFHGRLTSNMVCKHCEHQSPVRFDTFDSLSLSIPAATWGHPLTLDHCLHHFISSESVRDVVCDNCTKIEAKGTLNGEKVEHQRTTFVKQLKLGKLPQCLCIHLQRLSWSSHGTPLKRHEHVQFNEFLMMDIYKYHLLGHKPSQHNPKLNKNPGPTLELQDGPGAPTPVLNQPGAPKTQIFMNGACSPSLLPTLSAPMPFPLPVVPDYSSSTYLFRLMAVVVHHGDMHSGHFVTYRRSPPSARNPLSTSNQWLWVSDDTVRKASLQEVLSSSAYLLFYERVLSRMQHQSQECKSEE", "experiment": "USP30 biochemical IC50 assay", "conditions": "not given", "protocol": "(§1) USP30 Biochemical IC50 Assay\n(§2) Dilution plates were prepared at 21 times the final concentration (2100 μM for a final concentration of 100 μM) in 50% DMSO in a 96-well polypropylene V-bottom plate (Greiner #651201). A typical 8-point dilution series to be 100, 30, 10, 3, 1, 0.3, 0.1, 0.03 μM final. Reactions were performed in duplicate in black 384 well plates (small volume, Greiner 784076) in a final reaction volume of 21 μl. Either 1 μl of 50% DMSO or diluted compound was added to the plate. USP30 was diluted in reaction buffer (40 mM Tris, pH 7.5, 0.005% Tween 20, 0.5 mg/ml BSA, 5 mM beta-mercaptoethanol) to the equivalent of 0.05 μl/well and 10 μl of diluted USP30 was added to the compound. Enzyme and compound were incubated for 30 min at room temp. Reactions were initiated by the addition of 50 nM of TAMRA labelled peptide linked to ubiquitin via an iso-peptide bond as fluorescence polarisation substrate. Reactions were read immediately after addition of substrate and following a 2 hr incubation at room temperature. Readings were performed on a Pherastar Plus (BMG Labtech). λ Excitation 540 nm; λ Emission 590 nm.", "units": {"IC50": "µM"}, "values": [{"smiles": "N#CN1CCC(CNC(=O)c2nn(Cc3ccccc3)c3ccccc23)C1", "note": "(stereo not shown) [Example 29, 1-Benzyl-N-((1-cyanopyrrolidin-3-yl)methyl)-1H-indazole-3-carboxamide]", "IC50": "1 to 10"}]}, {"molecular_target": "USP30 (Homo sapiens (Human), UniProt Q70CQ3)", "experiment": "USP30 biochemical IC50 assay", "conditions": "fluorescence polarisation, TAMRA labelled peptide linked to ubiquitin; 30 min pre-incubation, 2 hr read; read-out: IC50 range", "protocol": "as §1, §2", "units": {"IC50": "µM"}, "values": [{"smiles": "CN(CC1CCN(C#N)C1)S(=O)(=O)c1ccc(Oc2ccc(C(F)(F)F)cn2)cc1", "note": "(stereo not shown) [Example 47, N-((1-Cyanopyrrolidin-3-yl)methyl)-N-methyl-4-((5-(trifluoromethyl)pyridin-2-yl)oxy)benzenesulfonamide]", "IC50": "0.1 to 1"}, {"smiles": "N#CN1CCC(CNc2ccc(-c3ccccc3)cn2)C1", "note": "(stereo not shown) [Example 6, 3-(((5-Phenylpyridin-2-yl)amino)methyl)pyrrolidine-1-carbonitrile]", "IC50": "1 to 10"}, {"smiles": "N#CN1CCC(CNC(=O)c2ccc(S(=O)(=O)Nc3ccccc3)cc2)C1", "note": "(stereo not shown) [Example 30, N-((1-Cyanopyrrolidin-3-yl)methyl)-4-(N-phenylsulfamoyl)benzamide]", "IC50": "0.1 to 1"}, {"smiles": "N#CN1CC[C@H](CNC(=O)c2cn3cc(Cl)ccc3n2)C1", "note": "[Example 35, (R)-6-Chloro-N-((1-cyanopyrrolidin-3-yl)methyl)imidazo[1,2-a]pyridine-2-carboxamide]", "IC50": "1 to 10"}, {"smiles": "Cc1oncc1-c1ccc2nc(NC(C)C3CCN(C#N)C3)sc2c1", "note": "(stereo not shown) [Example 48, 3-(1-((6-(5-Methylisoxazol-4-yl)benzo[d]thiazol-2-yl)amino)ethyl)pyrrolidine-1-carbonitrile]", "IC50": "0.1 to 1"}, {"smiles": "N#CN1CCC(CNc2nc3ccc(F)cc3s2)C1", "note": "(stereo not shown) [Example 2, 3-(((6-Fluorobenzo[d]thiazol-2-yl)amino)methyl)pyrrolidine-1-carbonitrile]", "IC50": "1 to 10"}, {"smiles": "N#CN1CCC(CNC(=O)Nc2ccc(C(F)(F)F)cc2)C1", "note": "(stereo not shown) [Example 45, 1-((1-Cyanopyrrolidin-3-yl)methyl)-3-(4-(trifluoromethyl)phenyl)urea]", "IC50": "0.1 to 1"}, {"smiles": "N#CN1CC[C@@H](CNC(=O)c2ccc3c(c2)NC(=O)CO3)C1", "note": "[Example 34, (S)—N-((1-Cyanopyrrolidin-3-yl)methyl)-3-oxo-3,4-dihydro-2H-benzo[b][1,4]oxazine-6-carboxamide]", "IC50": "1 to 10"}, {"smiles": "Cc1nn(C)cc1-c1ccc(NCC2CCN(C#N)C2)cc1", "note": "(stereo not shown) [Example 14, 3-(((4-(1,3-Dimethyl-1H-pyrazol-4-yl)phenyl)amino)methyl) pyrrolidine-1-carbonitrile]", "IC50": "1 to 10"}, {"smiles": "N#CN1CCC(CNC(=O)c2ccc(-c3ccncc3)cc2)C1", "note": "(stereo not shown) [Example 24, N-((1-Cyanopyrrolidin-3-yl)methyl)-4-(pyridin-4-yl)benzamide]", "IC50": "0.1 to 1"}, {"smiles": "Cc1cc(C(=O)NCC2CCN(C#N)C2)nn1Cc1ccccc1", "note": "(stereo not shown) [Example 40, 1-Benzyl-N-((1-cyanopyrrolidin-3-yl)methyl)-5-methyl-1H-pyrazole-3-carboxamide]", "IC50": "1 to 10"}, {"smiles": "Cc1nc(-c2cccc(S(=O)(=O)N(C)CC3CCN(C#N)C3)c2)cs1", "note": "(stereo not shown) [Example 46, N-((1-Cyanopyrrolidin-3-yl)methyl)-N-methyl-3-(2-methylthiazol-4-yl)-benzenesulfonamide]", "IC50": "0.1 to 1"}, {"smiles": "CN1C(=O)COc2ccc(C(=O)NCC3CCN(C#N)C3)cc21", "note": "(stereo not shown) [Example 23, N-((1-Cyanopyrrolidin-3-yl)methyl)-4-methyl-3-oxo-3,4-dihydro-2H-benzo[b][1,4]oxazine-6-carboxamide]", "IC50": "0.1 to 1"}, {"smiles": "N#CN1CC[C@H](CNC(=O)c2cn3ccc(C4CC4)cc3n2)C1", "note": "[Example 77, (R)—N-((1-Cyanopyrrolidin-3-yl)methyl)-7-cyclopropylimidazo[1,2-a]pyridine-2-carboxamide]", "IC50": "0.1 to 1"}, {"smiles": "CC(Nc1nc2ccc(-c3cn[nH]c3)cc2s1)C1CCN(C#N)C1", "note": "(stereo not shown) [Example 49, 3-(1-((6-(1H-Pyrazol-4-yl)benzo[d]thiazol-2-yl)amino)ethyl)pyrrolidine-1-carbonitrile]", "IC50": "0.1 to 1"}, {"smiles": "N#CN1CCC(CNC(=O)c2cncc(-c3ccc(F)cc3)c2)C1", "note": "(stereo not shown) [Example 33, N-((1-Cyanopyrrolidin-3-yl)methyl)-5-(4-fluorophenyl)nicotinamide]", "IC50": "0.1 to 1"}, {"smiles": "CNC(=O)c1ccc2cnc(NCC3CCN(C#N)C3)cc2c1", "note": "(stereo not shown) [Example 17, 3-(((1-Cyano-pyrrolidin-3-yl)methyl)amino)-N-methylisoquinoline-6-carboxamide]", "IC50": "1 to 10"}, {"smiles": "N#Cc1cccc(-c2nnc(C(=O)NC[C@@H]3CCN(C#N)C3)o2)c1", "note": "[Example 69, (S)-5-(3-Cyanophenyl)-N-((1-cyanopyrrolidin-3-yl)methyl)-1,3,4-oxadiazole-2-carboxamide]", "IC50": "< 0.1"}, {"smiles": "N#CN1CC[C@H](CNC(=O)c2ccc(-c3ccccc3)cn2)C1", "note": "[Example 60]", "IC50": "0.1 to 1"}, {"smiles": "N#CN1CCC(CNc2nccc(-c3ccccc3)n2)C1", "note": "(stereo not shown) [Example 8, 3-(((4-Phenylpyrimidin-2-yl)amino)methyl)pyrrolidine-1-carbonitrile]", "IC50": "1 to 10"}, {"smiles": "N#CN1CC[C@H](CNC(=O)c2cn3cc(-c4cn[nH]c4)ccc3n2)C1", "note": "[Example 75, (R)—N-((1-Cyanopyrrolidin-3-yl)methyl)-6-(H-pyrazol-4-yl)imidazo[1,2-a]pyridine-2-carboxamide]", "IC50": "1 to 10"}, {"smiles": "N#CN1CCC(CNc2ncccc2-c2ccccc2)C1", "note": "(stereo not shown) [Example 4, 3-(((3-Phenylpyridin-2-yl)amino)methyl)pyrrolidine-1-carbonitrile]", "IC50": "10 to 100"}, {"smiles": "N#CN1CC[C@H](CNC(=O)c2cc(-c3cccc(Cl)c3)no2)C1", "note": "[Example 55, (R)-3-(3-Chlorophenyl)-N-((1-cyanopyrrolidin-3-yl)methyl)isoxazole-5-carboxamide]", "IC50": "< 0.1"}, {"smiles": "N#CN1CC[C@H](CNC(=O)c2cn(-c3ccccc3)cn2)C1", "note": "[Example 70, (R)—N-((1-Cyanopyrrolidin-3-yl)methyl)-1-phenyl-1H-imidazole-4-carboxamide]", "IC50": "1 to 10"}, {"smiles": "Cc1ccc(F)c(NC(=O)NCC2CCN(C#N)C2)c1", "note": "(stereo not shown) [Example 42, 1-((1-Cyanopyrrolidin-3-yl)methyl)-3-(2-fluoro-5-methylphenyl)urea]", "IC50": "0.1 to 1"}, {"smiles": "N#CN1CC[C@H](CNC(=O)c2cn3ccc(Cl)cc3n2)C1", "note": "[Example 65, (R)-7-Chloro-N-((1-cyano-pyrrolidin-3-yl)methyl) imidazo[1,2-a] pyridine-2-carboxamide]", "IC50": "1 to 10"}, {"smiles": "Cc1nn(C)cc1-c1cccc(NCC2CCN(C#N)C2)c1", "note": "(stereo not shown) [Example 13, 3-(((3-(1,3-dimethyl-1H-pyrazol-4-yl)phenyl)amino)methyl)pyrrolidine-1-carbonitrile]", "IC50": "1 to 10"}, {"smiles": "N#CN1CC[C@H](CNC(=O)c2cn(CC3CC3)cn2)C1", "note": "[Example 79, (R)—N-((1-Cyanopyrrolidin-3-yl)methyl)-1-(cyclopropylmethyl)-1H-imidazole-4-carboxamide]", "IC50": "1 to 10"}, {"smiles": "CN(CC1CCN(C#N)C1)C(=O)Cc1ccc(-c2ccccc2)cc1", "note": "(stereo not shown) [Example 37, 2-([1,1′-biphenyl]-4-yl)-N-((1-cyanopyrrolidin-3-yl)methyl)-N-methylacetamide]", "IC50": "0.1 to 1"}, {"smiles": "N#CN1CCC(CNc2nc3ccc(-c4cn[nH]c4)cc3s2)C1", "note": "(stereo not shown) [Example 11, 3-(((6-(1H-Pyrazol-4-yl)benzo[d]thiazol-2-yl)amino)methyl)pyrrolidine-1-carbonitrile]", "IC50": "0.1 to 1"}, {"smiles": "Cc1ccccc1-c1cc(C(=O)NCC2CCN(C#N)C2)[nH]n1", "note": "(stereo not shown) [Example 25, N-((1-Cyanopyrrolidin-3-yl)methyl)-3-(o-tolyl)-1H-pyrazole-5-carboxamide]", "IC50": "0.1 to 1"}, {"smiles": "N#CC(Nc1nc2ccccc2s1)C1CCN(C#N)C1", "note": "(stereo not shown) [Example 52, 3-((Benzo[d]thiazol-2-ylamino)(cyano)methyl)pyrrolidine-1-carbonitrile]", "IC50": "0.1 to 1"}, {"smiles": "N#CN1CC[C@H](CNC(=O)c2cc(-c3ccccc3)ccn2)C1", "note": "[Example 59]", "IC50": "0.1 to 1"}, {"smiles": "N#CN1CCC(CNc2cccc(-c3ccccc3)n2)C1", "note": "(stereo not shown) [Example 7, 3-(((6-Phenylpyridin-2-yl)amino)methyl)pyrrolidine-1-carbonitrile]", "IC50": "1 to 10"}, {"smiles": "N#CN1CCC(CNC(=O)Nc2cccc(Cl)c2)C1", "note": "(stereo not shown) [Example 41, 1-(3-Chlorophenyl)-3-((1-cyanopyrrolidin-3-yl)methyl)urea]", "IC50": "0.1 to 1"}, {"smiles": "N#CN1CC[C@H](CNC(=O)c2cc3ccccn3n2)C1", "note": "[Example 36, (R)—N-((1-Cyanopyrrolidin-3-yl)methyl)pyrazolo[1,5-a]pyridine-2-carboxamide]", "IC50": "1 to 10"}, {"smiles": "N#CN1CCC(CNc2nccc3ccccc23)C1", "note": "(stereo not shown) [Example 3, 3-((Isoquinolin-1-ylamino)methyl)pyrrolidine-1-carbonitrile]", "IC50": "1 to 10"}, {"smiles": "N#CN1CCC(CNc2ccc3ccccc3n2)C1", "note": "(stereo not shown) [Example 1, 3-((Quinolin-2-ylamino)methyl)pyrrolidine-1-carbonitrile]", "IC50": "1 to 10"}, {"smiles": "N#CN1CCC(CNC(=O)Nc2ccc(Cl)cc2Cl)C1", "note": "(stereo not shown) [Example 44, 1-((1-Cyanopyrrolidin-3-yl)methyl)-3-(2,4-dichlorophenyl)urea]", "IC50": "0.1 to 1"}, {"smiles": "COc1ccccc1-n1cnc(C(=O)NC[C@H]2CCN(C#N)C2)c1", "note": "[Example 73, (R)—N-((1-Cyanopyrrolidin-3-yl)methyl)-1-(2-methoxyphenyl)-1H-imidazole-4-carboxamide]", "IC50": "0.1 to 1"}, {"smiles": "N#CN1CCC(CNc2ccnc(N3Cc4ccccc4C3)c2)C1", "note": "(stereo not shown) [Example 18, 3-(((2-(isoindolin-2-yl)pyridin-4-yl)amino)methyl)pyrrolidine-1-carbonitrile]", "IC50": "0.1 to 1"}, {"smiles": "N#CN1CCC(CNC(=O)Nc2cccc(Cc3ccccc3)c2)C1", "note": "(stereo not shown) [Example 43, 1-(3-Benzylphenyl)-3-((1-cyanopyrrolidin-3-yl)methyl)urea]", "IC50": "0.1 to 1"}]}]}
